Source: ChEMBL document CHEMBL3400121, “Design and synthesis of novel 1,2,3-triazole-pyrimidine-urea hybrids as potential anticancer agents” (Bioorg Med Chem Lett, 2015)

Experiments:
[1] = Anticancer activity against mouse B16F10 cells assessed as inhibition of proliferation after 72 hrs by MTT assay; format: functional, cell-based; settings: B16-F10, 72 h
MGC-803 = test: Anticancer activity against human MGC803 cells assessed as inhibition of proliferation after 72 hrs by MTT assay; format: functional, cell-based; settings: MGC-803, 72 h
[2] = Cytotoxicity against human GES-1 cells assessed as inhibition of proliferation after 72 hrs by MTT assay; format: cell-based; settings: GES1, 72 h
[3] = Anticancer activity against human EC109 cells assessed as inhibition of proliferation after 72 hrs by MTT assay; format: functional, cell-based; settings: ECa-109, 72 h
MCF7 = test: Anticancer activity against human MCF7 cells assessed as inhibition of proliferation after 72 hrs by MTT assay; format: functional, cell-based; settings: MCF7, 72 h

With `Cc1ccc(-c2nc(SCc3cn(CC(=O)NC(=O)Nc4ccccn4)nn3)nc(Nc3ccc(C(C)C)cc3)c2C#N)cc1` the IC50 [1] was 0.035 µM, the IC50 (MGC-803) was 19.3 µM and the IC50 [2] was greater than 64 µM. For the same compound, the IC50 [3] was 7.45 µM and the IC50 (MCF7) was greater than 64 µM.

`Cc1ccc(Nc2nc(SCc3cn(CC(=O)NC(=O)Nc4ccccn4)nn3)nc(-c3ccc(C(C)C)cc3)c2C#N)cc1` showed an IC50 [1] of 3.06 µM, an IC50 (MGC-803) of 3.36 µM and an IC50 [2] greater than 64 µM. It also gave an IC50 [3] of 6.7 µM and an IC50 (MCF7) greater than 64 µM.

Compound `Cc1ccc(Nc2nc(SCc3cn(CC(=O)NC(=O)Nc4ccccn4)nn3)nc(-c3ccc(C)cc3)c2C#N)cc1` has an IC50 [1] of 1.01 µM, an IC50 (MGC-803) of 9.89 µM and an IC50 [3] greater than 64 µM. It also gave an IC50 (MCF7) of 39.6 µM.

Work on `COc1ccc(Nc2nc(SCc3cn(CC(=O)NC(=O)Nc4ccccn4)nn3)nc(-c3ccc(C)cc3)c2C#N)cc1` yielded an IC50 [1] of 8.75 µM, an IC50 (MGC-803) of 1.7 µM and an IC50 [2] of 35.7 µM. It also gave an IC50 [3] of 5.87 µM and an IC50 (MCF7) of 23.4 µM.

Work on `CC(C)c1ccc(-c2nc(SCc3cn(CC(=O)NC(=O)Nc4ccccn4)nn3)nc(Nc3ccccc3O)c2C#N)cc1` yielded an IC50 [1] of 16.1 µM, an IC50 (MGC-803) of 16.4 µM and an IC50 [3] of 7.38 µM. For the same compound, the IC50 (MCF7) was greater than 64 µM.

`N#Cc1c(Nc2cccc(C(F)(F)F)c2)nc(SCc2cn(CC(=O)NC(=O)Nc3ccccn3)nn2)nc1-c1ccc(Br)cc1` gave an IC50 [1] of 4.55 µM, an IC50 (MGC-803) of 3.6 µM and an IC50 [2] of 38.7 µM. For the same compound, the IC50 [3] was 2.96 µM and the IC50 (MCF7) was 3.11 µM.

`Cc1ccc(Nc2nc(SCc3cn(CC(=O)NC(=O)Nc4ccccn4)nn3)nc(-c3ccc(Cl)cc3)c2C#N)cc1` gave an IC50 [1] of 1.32 µM, an IC50 (MGC-803) of 24 µM and an IC50 [3] of 13.1 µM. The IC50 (MCF7) was 27 µM.

With `CC(C)c1ccc(-c2nc(SCc3cn(CC(=O)NC(=O)Nc4ccccn4)nn3)nc(Nc3ccccc3)c2C#N)cc1` the IC50 [1] was 14.3 µM, the IC50 (MGC-803) was 15.8 µM and the IC50 [3] was greater than 64 µM. It also gave an IC50 (MCF7) greater than 64 µM.

Work on `Cc1cccc(Nc2nc(SCc3cn(CC(=O)NC(=O)Nc4ccccn4)nn3)nc(-c3ccc(C(C)C)cc3)c2C#N)c1` yielded an IC50 [1] of 1.65 µM, an IC50 (MGC-803) of 25.3 µM and an IC50 [3] of 7.32 µM. The IC50 (MCF7) was greater than 64 µM.

In the case of `CC(C)c1ccc(-c2nc(SCc3cn(CC(=O)NC(=O)Nc4ccccn4)nn3)nc(Nc3ccc(Cl)cc3)c2C#N)cc1`, the IC50 [1] is reported as 0.86 µM, the IC50 (MGC-803) is reported as greater than 64 µM and the IC50 [3] is reported as 11.2 µM. It also gave an IC50 (MCF7) greater than 64 µM.

With `COc1ccccc1Nc1nc(SCc2cn(CC(=O)NC(=O)Nc3ccccn3)nn2)nc(-c2ccc(C)cc2)c1C#N` the IC50 [1] was 8.58 µM, the IC50 (MGC-803) was 7.96 µM and the IC50 [2] was greater than 64 µM. It also gave an IC50 [3] of 7.85 µM and an IC50 (MCF7) of 19.7 µM.

`Cc1ccc(Nc2nc(SCc3cn(CC(=O)NC(=O)Nc4ccccn4)nn3)nc(-c3ccc(Br)cc3)c2C#N)cc1` gave an IC50 [1] of 8.16 µM, an IC50 (MGC-803) of 13.9 µM and an IC50 [3] of 7.92 µM. For the same compound, the IC50 (MCF7) was 14.4 µM.

With `O=c1[nH]cc(F)c(=O)[nH]1` [FLUOROURACIL] the IC50 [1] was 1.43 µM, the IC50 (MGC-803) was 8.43 µM and the IC50 [3] was 11.6 µM. The IC50 (MCF7) was 9.12 µM.

For `Cc1ccccc1Nc1nc(SCc2cn(CC(=O)NC(=O)Nc3ccccn3)nn2)nc(-c2ccc(C(C)C)cc2)c1C#N`, the IC50 [1] was 18.6 µM, the IC50 (MGC-803) was 19 µM and the IC50 [3] was 7.23 µM. It also gave an IC50 (MCF7) greater than 64 µM.

With `CC(C)c1ccc(-c2nc(SCc3cn(CC(=O)NC(=O)Nc4ccccn4)nn3)nc(Nc3cccc(C(F)(F)F)c3)c2C#N)cc1` the IC50 [1] was 1.7 µM, the IC50 (MGC-803) was greater than 64 µM and the IC50 [3] was 24.2 µM. It also gave an IC50 (MCF7) of 8.62 µM.

With `CC(C)c1ccc(-c2nc(SCc3cn(CC(=O)NC(=O)Nc4ccccn4)nn3)nc(Nc3ccccc3Cl)c2C#N)cc1` the IC50 [1] was 6.79 µM, the IC50 (MGC-803) was 19.7 µM and the IC50 [3] was 23.4 µM. For the same compound, the IC50 (MCF7) was 43.7 µM.

For `CC(C)c1ccc(Nc2nc(SCc3cn(CC(=O)NC(=O)Nc4ccccn4)nn3)nc(-c3ccc(Br)cc3)c2C#N)cc1`, the IC50 [1] was 0.042 µM, the IC50 (MGC-803) was 15.6 µM and the IC50 [2] was greater than 64 µM. The IC50 [3] was greater than 64 µM and the IC50 (MCF7) was 30.6 µM.

With `COc1cc(-c2nc(SCc3cn(CC(=O)NC(=O)Nc4ccccn4)nn3)nc(Nc3cccc(C(F)(F)F)c3)c2C#N)cc(OC)c1OC` the IC50 [1] was 24.4 µM, the IC50 (MGC-803) was 8.21 µM and the IC50 [2] was greater than 64 µM. It also gave an IC50 [3] greater than 64 µM and an IC50 (MCF7) of 8.14 µM.

In the case of `COc1cc(-c2nc(SCc3cn(CC(=O)NC(=O)Nc4ccccn4)nn3)nc(Nc3cccc(Cl)c3)c2C#N)cc(OC)c1OC`, the IC50 [1] is reported as 1.42 µM, the IC50 (MGC-803) is reported as 15.4 µM and the IC50 [3] is reported as greater than 64 µM. The IC50 (MCF7) was 24 µM.

Compound `Cc1ccc(-c2nc(SCc3cn(CC(=O)NC(=O)Nc4ccccn4)nn3)nc(Nc3cccc(Cl)c3)c2C#N)cc1` has an IC50 [1] of 7.58 µM, an IC50 (MGC-803) of 7.89 µM and an IC50 [3] of 25.6 µM. For the same compound, the IC50 (MCF7) was 14.9 µM.

Work on `CC(C)c1ccc(Nc2nc(SCc3cn(CC(=O)NC(=O)Nc4ccccn4)nn3)nc(-c3ccc(Cl)cc3)c2C#N)cc1` yielded an IC50 [1] of 1.59 µM, an IC50 (MGC-803) of 16.9 µM and an IC50 [3] greater than 64 µM. For the same compound, the IC50 (MCF7) was 39.9 µM.

In the case of `Cc1ccc(Nc2nc(SCc3cn(CC(=O)NC(=O)Nc4ccccn4)nn3)nc(-c3ccccc3)c2C#N)cc1`, the IC50 [1] is reported as 3.3 µM, the IC50 (MGC-803) is reported as 7.87 µM and the IC50 [3] is reported as 24.6 µM. For the same compound, the IC50 (MCF7) was greater than 64 µM.

Compound `COc1cc(-c2nc(SCc3cn(CC(=O)NC(=O)Nc4ccccn4)nn3)nc(Nc3ccc(C(C)C)cc3)c2C#N)cc(OC)c1OC` has an IC50 [1] of 1.21 µM, an IC50 (MGC-803) of 35.5 µM and an IC50 [3] greater than 64 µM. It also gave an IC50 (MCF7) of 30.9 µM.

In the case of `COc1ccc(Nc2nc(SCc3cn(CC(=O)NC(=O)Nc4ccccn4)nn3)nc(-c3ccc(C(C)C)cc3)c2C#N)cc1`, the IC50 [1] is reported as 0.36 µM, the IC50 (MGC-803) is reported as greater than 64 µM and the IC50 [3] is reported as 5.42 µM. The IC50 (MCF7) was greater than 64 µM.

With `CC(C)c1ccc(-c2nc(SCc3cn(CC(=O)NC(=O)Nc4ccccn4)nn3)nc(Nc3ccc(F)cc3)c2C#N)cc1` the IC50 [1] was 7.25 µM, the IC50 (MGC-803) was 17.5 µM and the IC50 [3] was greater than 64 µM. For the same compound, the IC50 (MCF7) was greater than 64 µM.

In the case of `COc1cc(-c2nc(SCc3cn(CC(=O)NC(=O)Nc4ccccn4)nn3)nc(Nc3ccc(Cl)cc3)c2C#N)cc(OC)c1OC`, the IC50 [1] is reported as 1.11 µM, the IC50 (MGC-803) is reported as 17.5 µM and the IC50 [3] is reported as greater than 64 µM. For the same compound, the IC50 (MCF7) was 45.1 µM.

`CC(C)c1ccc(Nc2nc(SCc3cn(CC(=O)NC(=O)Nc4ccccn4)nn3)nc(-c3ccc(C(C)C)cc3)c2C#N)cc1` gave an IC50 [1] of 4.38 µM, an IC50 (MGC-803) of 15.8 µM and an IC50 [3] of 2.49 µM. The IC50 (MCF7) was 28.6 µM.

Compound `COc1ccccc1Nc1nc(SCc2cn(CC(=O)NC(=O)Nc3ccccn3)nn2)nc(-c2ccc(C(C)C)cc2)c1C#N` has an IC50 [1] of 34.6 µM, an IC50 (MGC-803) greater than 64 µM and an IC50 [3] of 8.96 µM. For the same compound, the IC50 (MCF7) was 19.3 µM.

In the case of `CC(C)c1ccc(-c2nc(SCc3cn(CC(=O)NC(=O)Nc4ccccn4)nn3)nc(Nc3ccccc3F)c2C#N)cc1`, the IC50 [1] is reported as 8.38 µM, the IC50 (MGC-803) is reported as greater than 64 µM and the IC50 [3] is reported as 15.5 µM. The IC50 (MCF7) was greater than 64 µM.

`Cc1ccc(-c2nc(SCc3cn(CC(=O)NC(=O)Nc4ccccn4)nn3)nc(Nc3cccc(C(F)(F)F)c3)c2C#N)cc1` showed an IC50 [1] of 9.58 µM, an IC50 (MGC-803) of 7.58 µM and an IC50 [3] of 32.3 µM. For the same compound, the IC50 (MCF7) was 6.12 µM.

Compound `CC(C)c1ccc(-c2nc(SCc3cn(CC(=O)NC(=O)Nc4ccccn4)nn3)nc(Nc3cccc(Cl)c3)c2C#N)cc1` has an IC50 [1] of 1.13 µM, an IC50 (MGC-803) greater than 64 µM and an IC50 [3] of 13.3 µM. It also gave an IC50 (MCF7) of 18 µM.

`CC(C)c1ccc(-c2nc(SCc3cn(CC(=O)NC(=O)Nc4ccccn4)nn3)nc(Nc3cccc([N+](=O)[O-])c3)c2C#N)cc1` gave an IC50 [1] of 26.4 µM, an IC50 (MGC-803) greater than 64 µM and an IC50 [3] of 31.3 µM. For the same compound, the IC50 (MCF7) was 25.9 µM.
